According to patent publication US8377945B2, “Small molecule inhibitors of spleen tyrosine kinase (SYK)” (Rigel Pharmaceuticals Inc., priority 2009, dated 2013):

Biological target: T1, Syk kinase (Homo sapiens, UniProt P43405)
T1 construct: purchased Millipore 14-314
Assay: ELISA-based Syk kinase assay (phosphorylation of HS1 peptide substrate by isolated Syk kinase)
Assay type: biochemical
Conditions: IC50 of Syk kinase inhibition; 2 μM ATP, 2 μM peptide substrate
Description: Compounds were tested for the ability to inhibit Syk kinase catalyzed phosphorylation of a peptide substrate in an assay with isolated Syk kinase.
An assay was carried out in a Costar white 96 well plate (Fisher Scientific, Cat No. 07-200-591) coated overnight with 0.01 mg/ml Neutravidin (Pierce, 100 μl/well) at 4° C. Neutravidin pre-coated 96 well plates were blocked with 2% BSA in PBST buffer for at least 1 hour before starting the assay at room temperature. Serially diluted compound stock solution containing a subject compound was prepared separately in DMSO solution starting from 300 μM and 2 μl of this diluted compound (3% DMSO final concentration) was added directly to neutravidin coated assay plate containing 55.5 μl/well of kinase reaction buffer composed of 20 mM HEPES, pH 7.4, 5 mM MgCl2, 2 mM MnCl2, 1 mM DTT, 0.01% Tween 20 pre-mixed with ATP and kinase substrate (HS1 peptide). Reaction was initiated by adding of 2.5 μl/well Syk kinase (Millipore, Cat No. 14-314) resulting in a final reaction volume of 60 μl and then the reaction was allowed to continue for 30 minutes at room temperature. Final enzyme reaction conditions were 20 mM HEPES, pH 7.4, 5 mM MgCl2, 2 mM MnCl2, 1 mM DTT, 0.01% Tween 20, 0.25 ng Syk, 2 μM ATP, 2 μM peptide substrate (Biotin-EQEDEPEGDYEEVLE-CONH2, SynPep Corporation). After completing the reaction, assay plate was washed three times with PBST and incubated for 1 hour at room temperature with 100 μl/well of phosphopeptide detection antibody solution prepared by mixing 1-1000 diluted mouse anti-pTyr monoclonal antibody (Cell Signal Technology, Cat No. 9411) and 1-1000 diluted goat HRP-conjugated anti-mouse IgG (Jackson Immunoresearch, Cat. No. 115-035-003). Before developing the plate with supersignal ELISA pico chemiluminescent substrate (Pierce), plate was washed three times again with PBST and were read on a SpectraMax M5 microplate reader (Moleculear Devices).

IC50	Compound
3 to 25 µM	N#Cc1cccc(Nc2c(-c3ccc4c(c3)NC(=O)CO4)[nH]c3c(C#N)cnn23)c1 [Compound 9]
> 25 µM	COc1cc(-c2[nH]c3c(C#N)cnn3c2NC(C)(C)CC(C)(C)C)cc(OC)c1OC [Compound 11]
3 to 25 µM	COc1cc(-c2[nH]c3c(C#N)cnn3c2N)cc(OC)c1OC [Compound 17]
3 to 25 µM	COc1cc(-c2[nH]c3c(C#N)cnn3c2NC(=O)c2ccc(C(F)(F)F)c(F)c2)cc(OC)c1OC [Compound 18]
3 to 25 µM	COc1cc(-c2[nH]c3c(C#N)cnn3c2NC(=O)c2ccccc2)cc(OC)c1OC [Compound 19]
3 to 25 µM	COc1cc(-c2[nH]c3c(C#N)cnn3c2NC(=O)c2ccc(F)cc2)cc(OC)c1OC [Compound 20]
> 25 µM	COc1cccc(C(=O)Nc2c(-c3cc(OC)c(OC)c(OC)c3)[nH]c3c(C#N)cnn23)c1 [Compound 21]
0.51 to 2.99 µM	COc1cc(-c2[nH]c3c(C#N)cnn3c2Nc2ccc(Cl)c(Cl)c2)cc(OC)c1OC [Compound 22]
3 to 25 µM	COc1cc(Nc2c(-c3ccc4cc[nH]c4c3)[nH]c3c(C#N)cnn23)cc(OC)c1OC [Compound 26]
0.51 to 2.99 µM	N#Cc1cnn2c(Nc3ccc(N4CCOCC4)cc3)c(-c3ccc4cc[nH]c4c3)[nH]c12 [Compound 27]
3 to 25 µM	COc1cc(Nc2c(-c3cc(OC)c(OC)c(OC)c3)[nH]c3c(C#N)cnn23)cc(OC)c1OC [Compound 29]
0.51 to 2.99 µM	CC(=O)Nc1cccc(Nc2c(-c3ccc4c(c3)NC(=O)CO4)[nH]c3c(C#N)cnn23)c1 [Compound 31]
3 to 25 µM	CC(=O)Nc1ccc(-c2[nH]c3c(C#N)cnn3c2Nc2cccc(NC(C)=O)c2)cc1 [Compound 34]
3 to 25 µM	COc1cccc(CNc2c(-c3ccc4c(c3)NC(=O)CO4)[nH]c3c(C#N)cnn23)c1 [Compound 35]
3 to 25 µM	COc1ccc(Nc2c(-c3ccc(F)cc3F)[nH]c3c(C#N)cnn23)cc1OC [Compound 36]
0.51 to 2.99 µM	COc1ccc(Nc2c(-c3ccc(F)c(F)c3)[nH]c3c(C#N)cnn23)cc1OC [Compound 37]
3 to 25 µM	COc1cc(-c2[nH]c3c(C#N)cnn3c2NC(=O)c2nnc(-c3ccccc3)o2)cc(OC)c1OC [Compound 39]
3 to 25 µM	COc1ccc(CCNc2c(-c3ccc4c(c3)NC(=O)CO4)[nH]c3c(C#N)cnn23)cc1OC [Compound 40]
> 25 µM	COc1ccc(CCNc2c(-c3cc(OC)c(OC)c(OC)c3)[nH]c3c(C#N)cnn23)cc1OC [Compound 41]
> 25 µM	COc1ccc(CC(=O)Nc2c(-c3cc(OC)c(OC)c(OC)c3)[nH]c3c(C#N)cnn23)cc1OC [Compound 42]

IC50	Compound
3 to 25 µM	COc1cccc(CNc2c(-c3cc(OC)c(OC)c(OC)c3)[nH]c3c(C#N)cnn23)c1 [Compound 46]
> 25 µM	COc1cc(-c2[nH]c3c(C#N)cnn3c2NC(=O)CBr)cc(OC)c1OC [Compound 53]
> 25 µM	COc1cc(-c2[nH]c3c(C#N)cnn3c2NC(=O)COc2ccccc2)cc(OC)c1OC [Compound 54]
3 to 25 µM	COc1ccc(Nc2c(Cc3ccccc3)[nH]c3c(C#N)cnn23)cc1OC [Compound 55]
3 to 25 µM	COc1ccc(Nc2c(-c3cc(F)c(F)c(F)c3)[nH]c3c(C#N)cnn23)cc1OC [Compound 57]
0.51 to 2.99 µM	COc1ccc(Nc2c(-c3cc(Cl)c(OC)c(OC)c3)[nH]c3c(C#N)cnn23)cc1OC [Compound 58]
0.51 to 2.99 µM	COc1cc(-c2[nH]c3c(C#N)cnn3c2Nc2ccc(OC)c(OC)c2)ccc1F [Compound 59]
3 to 25 µM	N#Cc1cnn2c(Nc3ccc4c(c3)OCCO4)c(-c3ccc4cc[nH]c4c3)[nH]c12 [Compound 60]
3 to 25 µM	COc1ccc2c(-c3[nH]c4c(C#N)cnn4c3Nc3ccc(NC(C)=O)cc3)c[nH]c2c1 [Compound 62]
3 to 25 µM	CC(=O)Nc1ccc(Nc2c(-c3ccc4c(c3)OCCO4)[nH]c3c(C#N)cnn23)cc1 [Compound 63]
0.51 to 2.99 µM	COc1cc(-c2[nH]c3c(C#N)cnn3c2Nc2ccc(CNC(=O)OC(C)(C)C)cc2)cc(OC)c1OC [Compound 65]
3 to 25 µM	COc1cc(-c2[nH]c3c(C#N)cnn3c2Nc2ccc(CN)cc2)cc(OC)c1OC [Compound 66]
0.51 to 2.99 µM	COC(=O)c1cccc(Nc2c(-c3cc(OC)c(OC)c(OC)c3)[nH]c3c(C#N)cnn23)c1 [Compound 67]
3 to 25 µM	CC(=O)Nc1ccc(Nc2c(-c3ccc4c(c3)NC(=O)CO4)[nH]c3c(C#N)cnn23)cc1 [Compound 68]
0.51 to 2.99 µM	COc1ccc(-c2[nH]c3c(C#N)cnn3c2Nc2ccc(NC(C)=O)cc2)cc1OC [Compound 69]
0.51 to 2.99 µM	COc1cc(-c2[nH]c3c(C#N)cnn3c2Nc2ccc3c(c2)OCCO3)cc(O)c1OC [Compound 70]
0.51 to 2.99 µM	COC(=O)c1ccc(Nc2c(-c3cc(O)c(OC)c(OC)c3)[nH]c3c(C#N)cnn23)cc1 [Compound 71]
3 to 25 µM	COc1cc(-c2[nH]c3c(C#N)cnn3c2NCC2CCN(C(=O)OC(C)(C)C)CC2)cc(OC)c1OC [Compound 73]
3 to 25 µM	COc1cc(-c2[nH]c3c(C#N)cnn3c2NCC2CCNCC2)cc(OC)c1OC [Compound 74]
0.51 to 2.99 µM	COc1cc(-c2[nH]c3c(C#N)cnn3c2Nc2ccc(N3CCC(N4CCCC4)CC3)c(F)c2)cc(OC)c1OC [Compound 75]

IC50	Compound
3 to 25 µM	COC(=O)[C@H](Cc1ccccc1)Nc1c(-c2cc(OC)c(OC)c(OC)c2)[nH]c2c(C#N)cnn12 [Compound 76]
0.51 to 2.99 µM	COC(=O)c1cccc(Nc2c(-c3ccc(OC)c(OC)c3)[nH]c3c(C#N)cnn23)c1 [Compound 77]
3 to 25 µM	COC(=O)c1cccc(Nc2c(-c3cc(Cl)c(OC)c(OC)c3)[nH]c3c(C#N)cnn23)c1 [Compound 78]
3 to 25 µM	COc1cc(Nc2c(-c3ccc(N4CCOCC4)cc3)[nH]c3c(C#N)cnn23)cc(OC)c1OC [Compound 79]
0.51 to 2.99 µM	N#Cc1cnn2c(Nc3ccc(Br)cc3)c(-c3ccc(N4CCOCC4)cc3)[nH]c12 [Compound 80]
3 to 25 µM	COc1cc(Nc2c(-c3ccc(C(N)=O)cc3)[nH]c3c(C#N)cnn23)cc(OC)c1OC [Compound 81]
3 to 25 µM	COc1ccc(-n2cc(C#N)c3nc(-c4cc(OC)c(OC)c(OC)c4)c(N)n32)cc1 [Compound 82]
0.51 to 2.99 µM	COC(=O)COc1ccc(-c2[nH]c3c(C#N)cnn3c2Nc2cccc(C(=O)OC)c2)cc1OC [Compound 84]
0.51 to 2.99 µM	COC(=O)c1cccc(Nc2c(-c3ccc(OC)c(OCC(=O)O)c3)[nH]c3c(C#N)cnn23)c1 [Compound 86]
0.51 to 2.99 µM	COc1cc(-c2[nH]c3c(C#N)cnn3c2Nc2cccc(OC(F)(F)F)c2)cc(OC)c1OC [Compound 110]
0.51 to 2.99 µM	COc1ccc(Nc2c(-c3cc(OC)c(OC)c(OC)c3)[nH]c3c(C#N)cnn23)cc1OC1CCCC1 [Compound 115]
0.51 to 2.99 µM	COc1cc(-c2[nH]c3c(C#N)cnn3c2Nc2ccc(C)c(F)c2)cc(OC)c1OC [Compound 121]
0.51 to 2.99 µM	COC(=O)COc1ccc(-c2[nH]c3c(C#N)cnn3c2Nc2ccc(F)c(OC)c2)cc1OC [Compound 123]
0.51 to 2.99 µM	COc1cc(Nc2c(-c3cc(OC)c(OC)c(OC)c3)[nH]c3c(C#N)cnn23)ccc1OC1CCCC1 [Compound 128]
0.51 to 2.99 µM	COc1cc(Nc2c(-c3cc(OC)c(OC)c(OC)c3)[nH]c3c(C#N)cnn23)ccc1OCCN1CCCC1 [Compound 129]
0.51 to 2.99 µM	COc1cc(-c2[nH]c3c(C#N)cnn3c2Nc2ccc(F)c(C(F)(F)F)c2)cc(OC)c1OC [Compound 130]
0.51 to 2.99 µM	COc1cc(-c2[nH]c3c(C#N)cnn3c2Nc2ccc(OC(F)(F)F)cc2)cc(OC)c1OC [Compound 131]
0.51 to 2.99 µM	COc1cc(-c2[nH]c3c(C#N)cnn3c2Nc2ccc(N3CCCC3)c(F)c2)cc(OC)c1OC [Compound 134]
